From patent US20180333371A1, “CURCUMIN AND RESVERATROL FOR CHRONIC INFLAMMATION” (DSM IP Assets B.V., priority 2015, published 2018)

Key:
Type in all cases: cell-based, Sprague Dawley rat
[1] = tested on: TNF-α release by primary microglia; assay: LPS-stimulated TNF-α release by primary microglia (multiplex ELISA); conditions: 0-250 μM, FIG. 2B
Source text: (§1) Microglial Harvesting and Culture. All experiments involving animals were approved by the Animal Care and Use Committee established at Bolder Biopath, Inc. (Boulder, Colo.). Primary microglial cultures were derived from neocortical tissue of E22 Sprague Dawley rat pups taken from timed-pregnant dams (Charles River) by Caesarean section. Briefly, the pup brain cortices were isolated in Hibernate EB (Brain Bits; Springfield, Ill.). The samples were then transferred to Hibernate E (without Ca; Brain Bits; Springfield, Ill.) and washed twice with fresh Hibernate E (−Ca). The tissue was next digested in Hibernate E (−Ca) containing 0.5% trypsin (Sigma) for 15 min at 37° C.). […]
(§2) The tissue was triturated into single cells, and the suspension was filtered through a 70-μm cell strainer. Cell numbers and viability were consistently greater than 95% as determined using trypan blue (0.4%; Fisher Scientific) and a Countess automated cell counter (Life Technologies, Grand Island, N.Y.). […]
(§3) Cell Stimulation and Cytokine Assays. […] The concentration of prostaglandin E2 (PGE2) in the supernatant was measured by ELISA (Cayman Chemical). The concentrations of tumor necrosis factor-α (TNF-α), interleukin-1β (IL-1β) and interleukin-6 (IL-6) in the supernatant were determined by multiplex ELISA (Quansys Biosciences; Logan, Utah). […]

[2] = tested on: PGE2 release from primary microglia; assay: LPS-stimulated PGE2 release by primary microglia (ELISA); conditions: for effect on PGE2 release: FIG. 2A
Source text: Microglial Harvesting and Culture. All experiments involving animals were approved by the Animal Care and Use Committee established at Bolder Biopath, Inc. (Boulder, Colo.). Primary microglial cultures were derived from neocortical tissue of E22 Sprague Dawley rat pups taken from timed-pregnant dams (Charles River) by Caesarean section. Briefly, the pup brain cortices were isolated in Hibernate EB (Brain Bits; Springfield, Ill.). The samples were then transferred to Hibernate E (without Ca; Brain Bits; Springfield, Ill.) and washed twice with fresh Hibernate E (−Ca). The tissue was next digested in Hibernate E (−Ca) containing 0.5% trypsin (Sigma) for 15 min at 37° C.). The overlying solution was removed, and the trypsin reaction was quenched by washing the settled tissue with Hibernated E (—Ca) containing 20% heat-inactivated fetal bovine serum (FBS; Hyclone).
The tissue was triturated into single cells, and the suspension was filtered through a 70-μm cell strainer. Cell numbers and viability were consistently greater than 95% as determined using trypan blue (0.4%; Fisher Scientific) and a Countess automated cell counter (Life Technologies, Grand Island, N.Y.). Cells were seeded into T-75 flasks (VWR) at 8×10^6 cells/flask in HiGlutaXL Dulbecco's Modified Eagle Medium (DMEM, 4.5 g/L glucose, plus glutamine; HyClone) containing 100 μg/mL penicillin, 100 μg/mL streptomycin, 0.5 ng/mL amphotericin (CellnTec) and 1 mM sodium pyruvate. The media was changed on day 3 in vitro, and the cells were fed every 4-5 days while in the flasks. At day 14 in vitro, mouse granulocyte macrophage colony stimulating factor (mGM-CSF; R&D Systems; Minneapolis, Minn.) was added at a final concentration of 5 ng/mL to stimulate microglial differentiation.
as §3

[3] = tested on: IL-1β release by primary microglia; assay: LPS-stimulated IL-1β release by primary microglia (multiplex ELISA); conditions: 0-250 μM, FIG. 2C
Source text: as §1, §2, §3

[4] = tested on: PGE2 release from primary microglia; assay: Synergism analysis (median-effect principle, combination index, ComboSyn) of PGE2 release inhibition

IC50 ([2]; Rattus norvegicus, FIG. 3): 2.25 µM
SMILES: Oc1ccc(C=Cc2cc(O)cc(O)c2)cc1 [Resveratrol, resveratrol]
significant effects on TNF-α release [1]: not detected
effect on PGE2 release ([2]; 75 μM): significantly inhibited
effect on PGE2 release ([2]; 250 μM): significantly inhibited
significant effects on IL-1β release [3]: not detected
Dose reduction index (DRI) ([4]; in combination resveratrol 2.25 μM + curcumin C3 7 nM, FIG. 4): 42.76
decrease in concentration that would still have a synergistic effect in combination ([4]; relative to 2.25 μM resveratrol / 7 nM curcumin C3): 43%
